Measurements as given in US20190254285A1, “SODIUM PHOSPHITE COMBINATIONS” (priority 2016, published 2019).

What was measured:
[1] = tested on: powdery mildew; assay: Powdery mildew on tomato leaf disks; format: in vivo; settings: for Surface area (%): leaf disk area covered by powdery mildew after 10 days, phosphite 16 mM, sulfur 0.5 g per liter
Protocol: Leaves were taken from 5 to 6 week old tomato plant. Per treatment 5 ml was sprayed over 5 leaves and dried for 1 hour. Circular disks were punched from the treated leaves with a diameter of 11 mm. 5 disks per treatment were put on water agar in 90 mm ø petri dishes. Water agar was made by sterilizing agar-agar (5 g/L, Carl Roth), benzimidazole (30 mg/L, Sigma-Aldrich) and antibiotic tetracycline hydrochloride (25 mg/L, Carl Roth) in water. Disks were infected by brushing powdery mildew spores from an infected leave until disks were visually covered by spores. […] Efficacy was calculated by comparing the treatments against the untreated control. Replicates: 20 disks were used per treatment. All phosphite concentrations were tested at a concentration of 16 mM of phosphite. Formulated sulfur was applied at a dose of 0.5 g sulfur per liter. Formulated sulfur consists of the following elements: Sulfur±50% (w/w); Anionic surfactant<3%; Non-ionic surfactant <3%; Water±44%.

[2] = tested on: Penicillium discolor; assay: Penicillium discolor rot on wounded apples cv Gala; format: in vivo; settings: for Efficacy (%): rot surface area vs untreated control, phosphite 16 mM, natamycin 100 ppm
Protocol: Tested fruit: apples cv Gala from organic origin/SKAL certified. SKAL is a semi-governmental Dutch organization that controls organic production in the Netherlands. Wounds of the apples were checked at day 3. All phosphite concentrations were tested at a concentration of 16 mM of phosphonate. Natamycin (95%, Freda) solo and in combination was tested at a concentration of 100 ppm. […] Used pathogen: Penicillium discolor spore-suspension containing 4*10E6 spores/ml. Application: The fruit peel of the apple was damaged with a cork borer, ø4 mm and depth ˜0.5 cm into the fruit, with 2 wounds per apple. 40 microliter of a freshly prepared spore suspension of P. discolor was applied by pipette onto each wound. Subsequently, the spore-suspension was allowed to air-dry for 4 hours. Then, 50 microliter of a treatment as presented in the list above was applied by pipette to each wound. All fruits were kept at room temperature (20° C.). Wounds of the apples were checked after 4, 7 and 9 days of incubation. The efficacy is calculated by measuring the surface area (square mm) of the rot on the apples, and compared to the untreated control (see Table 4). Replicates: All treatments for the apple experiment were performed on six individual apples with two wounds each resulting in 12 wounds per treatment.

[3] = tested on: Plasmopara viticola; assay: Downy mildew on grapevine plants in greenhouse, phosphites and DITHANE Neotec; format: in vivo; settings: for Incidence: 21 days after the second treatment application, phosphite 1.50 l of 2 M solution/100 l, DITHANE Neotec 0.05 kg/100 liter water
Protocol: The trial was conducted with young plants of grapevine cultivar MERLOT in a greenhouse. Treatments were applied twice, once when 3 to 4 leaves were unfolded and the second application 10 days later. Each treatment had 4 plots as replications. The experimental set up was completely randomized and each plot had 3 plants. Inoculation of the plants with the pathogen Plasmopara viticola was performed 4 days after the second application. The suspension of the spores in water was prepared at the concentration of 20,000 to 40,000 spores/ml. All foliage ware inoculated. The different phosphites were applied at the same molar concentration of phosphite. With the high phosphite treatments, a concentration of 1.50 1 of a 2 M solution/100 1 was used and with the low phosphite treatment a concentration of 0.75 1 of a 2 M solution/100 1. […] An assessment on incidence and severity was performed 21 and 28 days after the second application. Efficacy was calculated for severity in comparison to untreated control infected. Similar to Example 5, with the following amendments: […] One measurement was performed at 21 days after the second application.

[4] = tested on: Plasmopara viticola; assay: Downy mildew on grapevine plants in greenhouse, phosphites and REVUS; format: in vivo; settings: conclusion from Table 5
Protocol: The trial was conducted with young plants of grapevine cultivar MERLOT in a greenhouse. […] Treatments were applied twice, once when 3 to 4 leaves were unfolded and the second application 10 days later. […] Inoculation of the plants with the pathogen Plasmopara viticola was performed 4 days after the second application. The suspension of the spores in water was prepared at the concentration of 20,000 to 40,000 spores/ml. All foliage ware inoculated. The different phosphites were applied at the same molar concentration of phosphite. With the high phosphite treatments, a concentration of 1.50 1 of a 2 M solution/100 1 was used and with the low phosphite treatment a concentration of 0.75 1 of a 2 M solution/100 1. […] An assessment on incidence and severity was performed 21 and 28 days after the second application. Efficacy was calculated for severity in comparison to untreated control infected.

[5] = tested on: grapevine plants; assay: Phytotoxicity on grapevine plants; design: species or system grapevine cultivar MERLOT; settings: in vivo
Protocol: Treatments were applied twice, once when 3 to 4 leaves were unfolded and the second application 10 days later. […] The experimental set up was completely randomized and each plot had 3 plants. Inoculation of the plants with the pathogen Plasmopara viticola was performed 4 days after the second application. The suspension of the spores in water was prepared at the concentration of 20,000 to 40,000 spores/ml. All foliage ware inoculated. The different phosphites were applied at the same molar concentration of phosphite. With the high phosphite treatments, a concentration of 1.50 1 of a 2 M solution/100 1 was used and with the low phosphite treatment a concentration of 0.75 1 of a 2 M solution/100 1. REVUS® was used with a standard concentration of 0.015 liter/100 liter. An assessment on incidence and severity was performed 21 and 28 days after the second application. Efficacy was calculated for severity in comparison to untreated control infected.

| Molecule | Surface area (%) [1] [%] | Efficacy (%) ([2]; Day 4) | Efficacy (%) ([2]; Day 7) | Efficacy (%) ([2]; Day 9) | Incidence [3] | Increase of the fungal efficacy of REVUS compared with other phosphite salts [4] | Increase of the fungal efficacy of sulphur compared with other phosphite salts ([1]; conclusion from Table 7) | Increase of the fungal efficacy of DITHANE Neotec compared with other phosphite salts ([3]; conclusion from Table 6) | Phytotox (%) [5] [%] | Increase of the fungal efficacy of natamycin compared with other phosphite salts ([2]; equimolar phosphite concentrations, days 4, 7, 9) |
| --- | --- | --- | --- | --- | --- | --- | --- | --- | --- | --- |
| N.N.O=[PH](O)O [(NH4)2HPO3] | 66.32 | 71 | 60 | 55 |  |  |  |  |  |  |
| O=[PH]([O-])[O-].[K+].[K+] [Treatment K2HPO3] | 58.68 | 59 | 27 | 22 | 5.0 |  |  |  |  |  |
| disodium hydrogen phosphite [Na2HPO3] | 51.20 | 88 | 74 | 64 | 10.0 | increases the fungal efficacy of REVUS® the best | increases the fungal efficacy of sulphur the best | increases the fungal efficacy of DITHANE® Neotec the best | 0 | increases the fungal efficacy of natamycin the best at all time points |
